Results as given in US9175013B2, “Fused aminodihydrothiazine derivatives” (Eisai R&D Management Co., Ltd., priority 2011, dated 2015).
Read-outs that look alike come from different tables or passages of the source.

Tests used:
[1] = Brain tissue binding (BTB), rapid equilibrium dialysis; type: in vitro ADME, Sprague Dawley rat; conditions: 1 μg/mL in rat brain homogenate, 37° C., 6 h dialysis, mean of n = 3; for fraction unbound at 6 h, 1 μg/mL: male, Sprague Dawley, pH 7.4, read-out: Rat Brain fu
Procedure: Method for Determination of Plasma Protein Binding (PPB) and Brain Tissue Binding (BTB) Compound Preparation • Compounds were dissolved in DMSO to give a 1 mg free base/mL solution, before further dilution to 100 μg/mL in acetonitrile (100 μL of 1 mg/mL into 900 μL acetonitrile). Matrix Preparation • On the morning of dialysis, control male Sprague Dawley rat plasma and brain, previously stored at −80° C. were thawed at room temperature. Plasma was checked for pH and if necessary adjusted to 7.4 with 1M HCl. Plasma was then centrifuged (2000 g for 10 min) and the brains diluted with 2 mL of Phosphate Buffered Saline (pH 7.4) per gram of tissue and homogenised using a mechanical homogeniser. An aliquot (10 μL) of the 100 μg/mL acetonitrile compound solution was then added to 1 mL of plasma and brain homogenate and vortex mixed to give a final compound concentration of 1 μg/mL in matrix. RED Plate Preparation • The Rapid Equilibrium Dialysis (RED) plate (Thermo Scientific) was prepared in accordance with the manufacturers guidelines i.e. the base plate was soaked in 20% (v/v) ethanol for 10 min and then rinsed twice with deionised water before being allowed to dry. The base plate was then filled with the appropriate number of disposable inserts (n=3 per compound) (Thermo Scientific) and matrix containing 1 μg/mL compound added into the matrix chamber of the inserts (200 μL) and an aliquot (350 μL) of PBS added to the buffer chamber. The plate was then covered with an adhesive and incubated in air at 37° C. for 6 h with 130 rpm agitation. Sampling • Following the 6 h incubation, the seal was removed and an aliquot (50 μL) taken from the PBS chambers and dispensed into Micronics tubes. Also, an aliquot (50 μL) was removed from the matrix chambers and placed into separate Micronics tubes. Plasma and brain was then matrix matched with 50 μL of drug-free PBS and the PBS samples with 50 μL of the corresponding drug-free matrix, to give equal final compositions and volumes […]. Sample Analysis • Samples were vortex mixed and an aliquot (300 μL) of acetonitrile containing 0.1% formic acid and 100 ng/mL of an appropriate internal standard added. Samples were then mixed and centrifuged (2000 g for 15 min) and an aliquot of the supernatant (100 μL) removed into a 96-deep well plate and diluted with an equal volume of water ready for analysis by LC-MS/MS. • The following data was obtained for the following compounds in the above assay (Table 5).

[2] = tested on: Aβ peptide production in rat primary neuronal culture; experiment: In vitro cellular assay: quantification of Aβ peptide in culture of neurons from rat fetus brain; type: cell-based, Wistar rat; conditions: Primary cortical neuron
Procedure: Quantification of Aβ Peptide in Culture of Neurons from Rat Fetus Brain
Primary neuronal cultures were prepared from the cerebral cortex of embryonic day 18 Wistar rats (Charles River, UK). Specifically, the embryos were aseptically removed from pregnant rats under ether anesthesia. The brain was isolated from the embryo and immersed in HBSS (Sigma Aldrich #H9269) containing 10 mM HEPES (Gibco #15630-056). The cerebral cortex was collected from the isolated brain under a stereoscopic microscope. The cerebral cortex fragments collected were enzymatically treated in an enzyme solution containing 0.05% trypsin-EDTA solution (GIBCO, #25300) at 37° C. for 20 minutes to disperse the cells. The cells were then washed twice and then gently resuspended in Neurobasal medium (Gibco #21103) supplemented with 2% B27 supplement (GIBCO #17504-044), 0.5 mM L-glutamine (GIBCO #25030), 1×N2 (GIBCO #17502-048), 100 μg/ml Pen/Strep (GIBCO 15140-122) and 5% heat inactivated FCS (PAA #A15-701). The cell dispersion was filtered through a 40-μm nylon mesh (BD Falcon #352340) to remove the remaining cell mass, and thus a neuronal cell suspension was obtained. The neuronal cell suspension was diluted with the medium above and then plated in a volume of 100 μL/well at an initial cell density of 3.25×10^5 cells/ml in poly-D-lysine coated 96-well culture plate (Greiner #655940). The plated cells were cultured in the culture plate at 37° C. in 5% CO2-95% air for 24 hrs. The total amount of the medium was replaced with ‘assay Neurobasal medium’ (as above excluding heat inactivated FCS), and then the cells were cultured for a further five days.
The drug was added to the culture plate on Day 6 of culture as follows. 8 point compound serial dilutions were generated in DMSO at a concentration of ×1000 that of the final assay concentration (FAC). Compound solutions were then prepared by adding 999 ul of ‘Assay Neurobasal media’ (as described in above section) to 1 ul of DMSO compound stock. The total amount of the medium was removed from each of the cell plate wells, and […] of ‘Assay Neurobasal media’ was added followed by […] of compound solution. The final DMSO concentration was 0.1%. […]
Cell survival was evaluated using an Alamar assay according to the following procedure. […]
Measurement of fluorescence intensity for each well was the carried out at 540/590 nm using a Pherastar plus plate reader (BMG labtech). […]
Human/Rat β Amyloid (42) ELISA Kit Wako (#290-62601) and Human/Rat P Amyloid (40) ELISA Kit Wako (#294-62501) from Wako Pure Chemical Industries, Ltd. were used for Aβ ELISA. […] The results were shown as percentage of the control groups and IC50 values for each compound were determined using four parameter logistic fit model using the XLFIT5 software package (IDBS).

[3] = Aβ ELISA, rat primary cortical neurons, Aβ species (x-40 or x-42) not given, read-out: IC50

Rat BTB (%) [1] | fraction unbound at 6 h, 1 μg/mL [1] | IC50 [2, 3] | SMILES | IC50 ([2]; Rattus norvegicus)
97.9% | 0.021 | 12 nM | COc1cnc(C(=O)Nc2cc(F)c(F)c([C@]34CO[C@H](CF)[C@H]3CSC(N)=N4)c2)cn1 [Example 4, N-(3-((4aS,5S,7aS)-2-amino-5-(fluoromethyl)-4a,5,7,7a-tetrahydro-4H-furo[3,4-d][1,3]thiazin-7a-yl)-4,5-difluorophenyl)-5-methoxypyrazine-2-carboxamide] | 
96.5% | 0.035 | 4 nM | COc1cnc(C(=O)Nc2ccc(F)c([C@]34CO[C@H](C(F)F)[C@H]3CSC(N)=N4)c2)cn1 [Example 3, N-(3-((4aS,5S,7aS)-2-amino-5-(difluoromethyl)-4a,5,7,7a-tetrahydro-4H-furo[3,4-d][1,3]thiazin-7a-yl)-4-fluorophenyl)-5-methoxypyrazine-2-carboxamide] | 

SMILES | Rat BTB (%) [1] | fraction unbound at 6 h, 1 μg/mL [1] | IC50 [2, 3] | IC50 ([2]; Rattus norvegicus)
COc1cnc(C(=O)Nc2ccc(F)c([C@]34CO[C@H](CF)[C@H]3CSC(N)=N4)c2)cn1 [Example 2, N-(3-((4aS,5S,7aS)-2-amino-5-(fluoromethyl)-4a,5,7,7a-tetrahydro-4H-furo[3,4-d][1,3]thiazin-7a-yl)-4-fluorophenyl)-5-methoxypyrazine-2-carboxamide] | 93.4% | 0.066 |  | 4 nM
